Measurements from US20250145631A1, “HETEROCYCLIC COMPOUND ACTING ON G12D MUTANT KRAS PROTEIN” (Astellas Pharma Inc., priority 2022, published 2025).

Columns and labels:
Assay type in all cases: cell-based
[1] = test system: phosphorylation of ERK (Thr202/Tyr204); assay: ERK phosphorylation inhibitory effect by Cell ELISA in AsPC-1 cells (Test Example 2); settings: Homo sapiens, ASPC1, overnight treatment, Cell ELISA, read-out: IC50 (ERK phosphorylation inhibition)
Protocol: The ERK phosphorylation inhibitory effect of test compounds was evaluated by measuring phosphorylation of threonine 202 (Thr202) and tyrosine 204 (Tyr204) of ERK located downstream of the KRAS signal by Cell ELISA.
AsPC-1 cells were seeded on 384-well plates at 20 µL/well to give 2.0×10^4 cells per well. As for the cell culture conditions, RPMI 1640 medium containing 10% fetal bovine serum was used in the presence of 5% CO2 at 37° C.
The next day, the test compounds (10 points having final concentrations in the range of 10 μM to 0.3 nM), trametinib (MEK inhibitor) of a final concentration of […] as positive control and DMSO, which was the solvent for the test compounds, as negative control were diluted 500-fold with a fresh medium and were added at 20 μL per well. The cells were cultured overnight. After culturing, 30% glyoxal solution (40% glyoxal [from Nacalai Tesque]was diluted with PBS) was quickly added at 30 μL per well, and the plates were allowed to stand for 120 minutes at room temperature to thus immobilize the cells. Then, the plates were centrifuged to remove the supernatant (using a centrifugal dehydrator machine, the supernatant was removed by the same method hereinafter), and 0.10% Triton X-100-containing PBS was added at 20 μL per well. After allowing to stand for 10 minutes at room temperature, the supernatant was removed, and the same operation was further repeated. Next, 0.5% SDS-containing PBS was added at 20 μL per well, and after allowing to stand at room temperature for 30 minutes, the supernatant was removed. Subsequently, blocking solution (Intercept Blocking Buffer) was added at 20 μL per well, and the plates were allowed to stand for 1 hour at room temperature. The supernatant was removed, and an ERK (Thr202/Tyr204) phosphorylation antibody (Phospho-p44/42 MAPK (Erk 1/2) (Thr202/Tyr204) (D13.14.4E) XP Rabbit mAb; from Cell Signaling Technology) diluted 2,500-fold with blocking solution was added at 15 μL per well as a primary antibody. The plates were allowed to stand at 4° C. overnight.
The next day, the supernatant was removed. 0.05% Tween-20 (from Thermo Fisher Scientific)-containing PBS was added at 50 μL per well, and the supernatant was removed to thus wash each well. The washing was performed three times in total. After washing, Goat anti-Rabbit IgG H&L (IRDye 800CW) diluted 1,000-fold with blocking solution was added at 15 μL per well as a secondary antibody, and the plates were allowed to stand for 1 hour at room temperature. The supernatant was removed, and each well was washed three times with 0.05% Tween-20-containing PBS in the same manner as after the primary antibody reaction. After removing the supernatant, the plates were dried with air at room temperature for 3 hours or more, and the 800-nm fluorescent signals were measured with Aerius.
With the signaling value at the time of addition of DMSO taken as 100% and with the signaling value at the time of addition of […] trametinib taken as 0%, the 50% inhibitory concentration values (IC50) were calculated by Sigmoid-Emax nonlinear regression analysis. The calculated 50% inhibition represents the inhibition at the highest concentration evaluated (10 μM) for a compound that exceeds the concentration in the evaluation range.
(§1) In the tables presented below, Ex represents Example No. The IC50 of Ex. 13, Ex. 15, and Ex. 16 were calculated using the molecular weights as tetrahydrochloride, and the IC50 of Ex. 14 was calculated using the molecular weight as trihydrochloride.

[2] = test system: human G12D mutant KRAS-positive pancreatic cancer line AsPC-1; assay: Non-anchorage-dependent cell growth inhibitory effect, spheroid 3D culture (Test Example 3); settings: ASPC1, 144 h, AsPC-1 spheroid 3D culture, 6 days, CellTiter Glo 2.0, read-out: IC50 (non-anchorage-dependent cell growth inhibition)
Protocol: The non-anchorage-dependent cell growth inhibitory effect of test compounds was evaluated by spheroid 3D cell culture.
AsPC-1 cells were seeded on low-cell-adhesive round bottom 384-well plates (PrimeSurface: from Sumitomo Bakelite) at 20 μL (or […])/well to give 5×10^2 cells per well. As for the cell culture conditions, RPMI 1640 medium containing 10% fetal bovine serum was used in the presence of 5% CO2 at 37° C.
The next day, the test compounds (10 points or 6 points having final concentrations in the range of 10 μM to 0.3 nM) and DMSO, which was the solvent for the test compounds, as a negative control were diluted 500-fold (or 100-fold) with a fresh medium and were added at 20 μL (or […]) per well. After culturing in the presence of 5% C02 at 37° C. for 6 days, CellTiter Glo 2.0 (from Promega) was added at 20 μL per well. After stirring with a plate mixer (from FINEPCR) at normal temperature for 1 hour, the luminescent signals were measured with ARVO X3 (from PerkinElmer).
With the signaling value in treatment with DMSO taken as 100% and with the signaling value in the medium alone without cells taken as 0%, the 50% inhibitory concentration values (IC50) were calculated by Sigmoid-Emax nonlinear regression analysis. The calculated 50% inhibition represents the inhibition at the highest concentration evaluated (10 μM) for a compound that exceeds the concentration in the evaluation range.
as §1

KRAS G12D = biological target: T1, KRAS G12D (Homo sapiens, UniProt P01116, G12D); assay: KRAS degradation activity by Cell ELISA in AsPC-1 cells (Test Example 1); settings: Cell ELISA; for Dmax: ASPC1, overnight treatment, read-out: Dmax (degradation rate at the concentration showing highest degradation); for DC50: overnight treatment, read-out: DC50 (50% degradation concentration of KRAS)
T1 construct: host or cells: AsPC-1 (human pancreatic cancer line)
Protocol: The KRAS degradation activity of test compounds was evaluated by measuring the expression levels of KRAS G12D by Cell ELISA.
AsPC-1 cells were seeded at 20 μL per well on 384-well plates (from Greiner bio-one) to give 2.0×10^4 cells per well. As for the cell culture conditions, RPMI 1640 (from Sigma-Aldrich) medium containing 10% fetal bovine serum (from Cytiva) was used in the presence of 5% CO2 at 37° C.
The next day, the test compounds (10 points having final concentrations in the range of 10 μM to 0.3 nM) and DMSO (from FUJIFILM Wako Pure Chemical Corporation), which was the solvent for the test compounds, as a negative control were diluted 500-fold with a fresh medium and were added at 20 μL per well. The cells were cultured overnight. The next day, the culture supernatant was removed, and 4% paraformaldehyde phosphate buffer (from FUJIFILM Wako Pure Chemical Corporation) was added at 20 μL per well. The plates were allowed to stand for 30 minutes at room temperature to thus immobilize the cells. Then, the supernatant was removed, and 0.1% Triton X-100 (from Amersham Biosciences)-containing Phosphate buffered saline (PBS; from FUJIFILM Wako Pure Chemical Corporation) was added at 20 μL per well. After allowing to stand for 10 minutes at room temperature, the supernatant was removed. PBS was added at 25 μL per well, and the supernatant was removed to thus wash each well. The washing was performed twice in total. Next, the supernatant was removed, and 0.5% sodium dodecyl sulfate (SDS; from Invitrogen)-containing PBS was added at 20 μL per well. After allowing to stand at room temperature for 10 minutes, the supernatant was removed by a centrifugal operation (using a centrifugal dehydrator machine, the supernatant was removed by the same method hereinafter). PBS was added at 25 μL per well, and the supernatant was removed to thus wash each well. The washing was performed twice in total. The supernatant was removed, and blocking solution (Intercept Blocking Buffer; from Li—COR Biosciences) was added at 20 μL per well. After allowing to stand for 30 minutes at room temperature, the supernatant was removed, and a solution obtained by diluting anti-β-actin antibody (Anti-beta Actin antibody [mAbcam 8226]-Loading Control; from abcam) 1,000-fold with blocking solution and a solution obtained by diluting anti-Ras (G12D Mutant Specific) antibody (Ras (G12D Mutant Specific) (D8H7) Rabbit mAb #14429; from Cell Signaling Technology) and anti-β-actin antibody (from abcam) 1,000-fold with blocking solution were respectively added to positive control wells and the other wells at 15 μL per well as a primary antibody. The plates were allowed to stand overnight at 4° C.
The next day, the supernatant was removed. PBS was added at 25 μL per well, and the supernatant was removed to thus wash each well. The washing was performed twice in total. The supernatant was removed, and a solution obtained by diluting Donkey anti-Mouse IgG H&L (IRDye 680RD) (from Li—COR Biosciences) and Goat anti-Rabbit IgG H&L (IRDye 800CW) (from Li—COR Biosciences) 1,000-fold with blocking solution was added at 15 μL per well as a secondary antibody. A solution obtained by diluting Donkey anti-Mouse IgG H&L (IRDye 680RD) (from Li—COR Biosciences) 1,000-fold with blocking solution was added to a positive control well as a secondary antibody. After allowing to stand for 1 hour at room temperature, the supernatant was removed. PBS was added at […], and the supernatant was removed to thus wash each well. The washing was performed twice in total. After removing the supernatant, the plates were dried with air at room temperature for 2 hours or more, and the 700 nm and 800 nm fluorescent signals were measured with Aerius (from Li—COR Biosciences). […]

T1 sequence (P01116 1-188 isoform P01116-2 G12D): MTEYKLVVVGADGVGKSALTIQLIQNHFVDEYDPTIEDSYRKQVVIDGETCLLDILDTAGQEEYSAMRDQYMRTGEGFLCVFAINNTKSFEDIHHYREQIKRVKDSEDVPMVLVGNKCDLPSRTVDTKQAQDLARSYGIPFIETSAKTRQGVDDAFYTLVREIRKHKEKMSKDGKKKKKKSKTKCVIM

| SMILES | IC50 [1] [nM] | IC50 [2] [nM] | Dmax (KRAS G12D) [%] | DC50 (KRAS G12D) [nM] |
| --- | --- | --- | --- | --- |
| CO[C@@H](C)COc1nc(N(C)[C@H]2CCNC2)c2cc(C3CC3)c(-c3c(C)c(F)cc4[nH]ncc34)c(OCc3ccc(C(=O)N4CCN(Cc5ccc6c(c5)n(C)c(=O)n6C5CCC(=O)NC5=O)C[C@@H]4C)cc3)c2n1 (stereo partly shown) [Example 18] | 250 | 217 | 77 | 85 |
| Cc1c(F)cc2[nH]ncc2c1-c1c(C2CC2)nc2c(N3C[C@@H]4C[C@H]3CN4)nc(OC3CCOCC3)nc2c1OCc1ccc(C(=O)N2CCN(Cc3ccc4c(c3)n(C)c(=O)n4C3CCC(=O)NC3=O)C[C@@H]2C)cc1 (stereo partly shown) [Example 48] | – | 161 | – | – |
| Cc1c(F)cc2[nH]ncc2c1-c1c(C2CC2)cc2c(N3C[C@@H]4C[C@H]3CN4)nc(O[C@H]3CCOC3)nc2c1OCc1ccc(C(=O)N2CCN(Cc3ccc4c(c3)n(C)c(=O)n4C3CCC(=O)NC3=O)C[C@@H]2C)cc1 (stereo partly shown) [Example 41] | 90 | 155 | 78 | 52 |
| Cc1c(F)cc2[nH]ncc2c1-c1c(C2CC2)cc2c(N3C[C@@H]4C[C@H]3CN4)nc(OC3CCOCC3)nc2c1OCc1ccc(C(=O)N2CCN(CCc3ccc4c(c3)c(N3CCC(=O)NC3=O)nn4C)C[C@@H]2C)cc1 (atropisomer, axis not shown) [Example 42] | 365 | 399 | 89 | 294 |
| Cc1c(F)cc2[nH]ncc2c1-c1c(C2CC2)cc2c(N3C[C@@H]4C[C@H]3CN4)nc(OC3CCOCC3)nc2c1OCc1ccc(C(=O)N2CCN(Cc3ccc4c(c3)cc(N3CCC(=O)NC3=O)c(=O)n4C)C[C@@H]2C)cc1 (atropisomer, axis not shown) [Example 46] | – | 1280 | – | – |
| CO[C@@H](C)COc1nc(N(C)[C@@H]2CCNC2)c2cc(C3CC3)c(-c3c(C)c(F)cc4[nH]ncc34)c(OCc3ccc(C(=O)N4CCN(Cc5ccc6c(c5)n(C)c(=O)n6C5CCC(=O)NC5=O)C[C@@H]4C)cc3)c2n1 (stereo partly shown) [Example 35] | 1510 | 1110 | 48 | 3670 |
| Cc1c(F)cc2[nH]ncc2c1-c1c(C2CC2)cc2c(N3C[C@@H]4C[C@H]3CN4)nc(OC3CCOCC3)nc2c1OCc1ccc(C(=O)N2CCN(Cc3ccc4c(c3)CN(C3CCC(=O)NC3=O)C4=O)C[C@@H]2C)cc1 (stereo partly drawn) [Example 33, 3-(5-{[(3S)-4-{4-[({(7M)-6-cyclopropyl-4-[(1S,4S)-2,5-diazabicyclo[2.2.1]heptan-2-yl]-7-(6-fluoro-5-methyl-1H-indazol-4-yl)-2-[(oxan-4-yl)oxy]quinazolin-8-yl}oxy)methyl]benzoyl}-3-methylpiperazin-1-yl]methyl}-1-oxo-1,3-dihydro-2H-isoindol-2-yl)piperidine-2,6-dione] | 102 | 142 | 88 | 79 |
| Cc1c(F)cc2[nH]ncc2c1-c1c(C2CC2)cc2c(N3C[C@@H]4C[C@H]3CN4)nc(OC3CCOCC3)nc2c1OCc1ccc(C(=O)N2CC[C@H](N(C)Cc3ccc4c(N5CCC(=O)NC5=O)nn(C)c4c3)C2)cc1 (atropisomer, axis not shown) [Example 20] | 1070 | 884 | 78 | 488 |
| Cc1c(F)cc2[nH]ncc2c1-c1c(C2CC2)cc2c(N3C[C@@H]4C[C@H]3CN4)nc(OC3CCOCC3)nc2c1OCc1ccc(C(=O)N2CCN(Cc3ccc4c(c3)n(C)c(=O)n4N3CCC(=O)NC3=O)C[C@@H]2C)cc1 (atropisomer, axis not shown) [Example 47] | – | 448 | – | – |
| CO[C@@H](C)COc1nc(N2CCNCC2)c2cc(C3CC3)c(-c3c(C)c(F)cc4[nH]ncc34)c(OCc3ccc(C(=O)N4CCN(Cc5ccc6c(c5)n(C)c(=O)n6C5CCC(=O)NC5=O)C[C@@H]4C)cc3)c2n1 (stereo partly shown) [Example 45] | – | 162 | – | – |
